# Source: patent US9394268B2, “(E)-1-(5-methoxy-2,2-dimethyl-2H-chromen-8-yl)-3-(4-methoxyphenyl)prop-2-en-1-one and analogs thereof, as well as preparation method and use thereof” (Sichuan University, priority 2012, dated 2016)
# Key:
# Format in all cases: cell-based
# HepG2 = assay: Cell proliferative assay (MTT), HepG2; conditions: Homo sapiens, 72 h incubation, read-out: IC50s HepG2
# Procedure: (§1) The synthesized compounds were evaluated for their cytotoxin activity against suspended tumor cells. These cells were seeded on 96-well plates and incubated for 24 h. Selected compounds were added at various doses and incubated for 72 h, MTT was then added, and the absorbance was measured at a wavelength of 590 nm. IC50 values are expressed as the mean±SEM from the dose-response curves of at least three independent experiments.
# K562 = assay: Cell proliferative assay (MTT), K562; conditions: Homo sapiens, 72 h incubation, read-out: IC50s K562
# Procedure: as §1
# A549 = assay: Cell proliferative assay (MTT), A549; conditions: Homo sapiens, 72 h incubation, read-out: IC50s A549
# Procedure: as §1
# A375 = assay: Cell proliferative assay (MTT), A375; conditions: Homo sapiens, A-375, 72 h incubation, read-out: IC50s A375
# Procedure: as §1
# SMMC-7221 = assay: Cell proliferative assay (MTT), SMMC-7221; conditions: 72 h incubation, read-out: IC50s SMMC-7221
# Procedure: as §1
# LO2 = assay: Cell proliferative assay (MTT), LO2; conditions: Homo sapiens, L02, 72 h incubation, read-out: IC50s LO2
# Procedure: as §1
IC50 (HepG2) [µM],IC50 (K562) [µM],IC50 (A549) [µM],IC50 (A375) [µM],IC50 (SMMC-7221) [µM],Compound,IC50 (LO2) [µM]
> 10,8.75,17.1,9.6,> 10,"CCN(CC)c1ccc(/C=C/C(=O)c2ccc(OC(C)=O)c3c2OC(C)(C)C=C3)cc1 [SKLBC-48, (E)-8-(3-(4-(diethylamino)phenyl)acryloyl)-2,2-dimethyl-2H-chromen-5-yl acetate]",> 20
> 10,> 10,> 20,> 10,> 10,"CCCCC(=O)Oc1ccc(C(=O)/C=C/c2ccc(N(CC)CC)cc2)c2c1C=CC(C)(C)O2 [SKLBC-51, (E)-8-(3-(4-(diethylamino)phenyl)acryloyl)-2,2-dimethyl-2H-chromen-5-ylpentanoate]",20
8.2,4.25,> 10,3.75,3.38,"CCN(CC)c1ccc(/C=C/C(=O)c2ccc(OS(=O)(=O)C3CC3)c3c2OC(C)(C)C=C3)cc1 [SKLBC-53, (E)-8-(3-(4-(diethylamino)phenyl)acryloyl)-2,2-dimethyl-2H-chromen-5-yl cyclopropanesulfonate]",> 10
9.45,–,9.1,> 10,0.59,"CCN(CC)c1ccc(/C=C/C(=O)c2ccc(OC(=O)C3C4C[C@H]5C[C@@H](C4)C[C@@H]3C5)c3c2OC(C)(C)C=C3)cc1 (some centres unmarked) [SKLBC-56, (1r,3r,5r,7r)-8-((E)-3-(4-(diethylamino)phenyl)acryloyl)-2,2-dimethyl-2H-chromen-5-yl adamantane-2-carboxylate]",> 10
> 10,> 10,> 10,> 10,> 10,"COc1ccc(/C=C/C(=O)c2ccc(OC)c3c2OC(C)(C)C=C3)cc1OCCN1CCOCC1 [SKLBC-57, (E)-1-(5-methoxy-2,2-dimethyl-2H-chromen-8-yl)-3-(4-methoxy-3-(2-morpholinoethoxy)phenyl)prop-2-en-1-one]",> 20
0.226,0.5,0.58,0.67,1.32,"COc1ccc(/C=C/C(=O)c2ccc(OC)c3c2OC(C)(C)C=C3)cc1OCCO [SKLBC-58, (E)-3-(3-(2-hydroxyethoxy)-4-methoxyphenyl)-1-(5-methoxy-2,2-dimethyl-2H-chromen-8-yl)prop-2-en-1-one]",> 10
> 10,> 10,> 10,> 10,> 10,"COc1ccc(/C=C/C(=O)c2ccc(OC)c3c2OC(C)(C)C=C3)cc1OCCN1CCCC1 [SKLBC-59, (E)-1-(5-methoxy-2,2-dimethyl-2H-chromen-8-yl)-3-(4-methoxy-3-(2-(pyrrolidin-1-yl)ethoxy)phenyl)prop-2-en-1-one]",> 20
> 10,> 10,> 10,> 10,> 10,"COc1ccc(/C=C/C(=O)c2ccc(OC)c3c2OC(C)(C)C=C3)cc1OCCN1CCCCC1 [SKLBC-60, (E)-1-(5-methoxy-2,2-dimethyl-2H-chromen-8-yl)-3-(4-methoxy-3-(2-(piperidin-1-yl)ethoxy)phenyl)prop-2-en-1-one]",> 20
0.44,0.58,0.44,1.05,1.15,"COc1ccc(/C=C/C(=O)c2ccc(OC)c3c2OC(C)(C)C=C3)cc1OCCCN(C)C [SKLBC-61, (E)-3-(3-(3-(dimethylamino)propoxy)-4-methoxyphenyl)-1-(5-methoxy-2,2-dimethyl-2H-chromen-8-yl)prop-2-en-1-one]",> 10
> 10,> 10,> 10,> 10,> 10,"COc1ccc(/C=C/C(=O)c2ccc(OC)c3c2OC(C)(C)C=C3)cc1OC(=O)Cc1cccc(C(F)(F)F)c1 [SKLBC-62, (E)-2-methoxy-5-(3-(5-methoxy-2,2-dimethyl-2H-chromen-8-yl)-3-oxoprop-1-en-1-yl)phenyl 2-(3-(trifluoromethyl)phenyl)acetate]",–
> 10,> 10,> 10,> 10,> 10,"COc1cccc(C(=O)Oc2cc(/C=C/C(=O)c3ccc(OC)c4c3OC(C)(C)C=C4)ccc2OC)c1 [SKLBC-63, (E)-2-methoxy-5-(3-(5-methoxy-2,2-dimethyl-2H-chromen-8-yl)-3-oxoprop-1-en-1-yl)phenyl 3-methoxybenzoate]",–
> 10,> 10,> 10,> 10,> 10,"COc1ccc(/C=C/C(=O)Oc2cc(/C=C/C(=O)c3ccc(OC)c4c3OC(C)(C)C=C4)ccc2OC)cc1 [SKLBC-64, (E)-2-methoxy-5-((E)-3-(5-methoxy-2,2-dimethyl-2H-chromen-8-yl)-3-oxoprop-1-en-1-yl)phenyl 3-(4-methoxyphenyl)acrylate]",–
0.368,1.11,–,0.413,2.34,"COc1ccc(/C=C/C(=O)c2ccc(OC)c3c2OC(C)(C)C=C3)cc1OC(=O)c1ccc(Br)cc1 [SKLBC-66, (E)-2-methoxy-5-(3-(5-methoxy-2,2-dimethyl-2H-chromen-8-yl)-3-oxoprop-1-en-1-yl)phenyl 4-bromobenzoate]",8.4
0.195,0.43,0.86,0.105,1.9,"COc1ccc(/C=C/C(=O)c2ccc(OC)c3c2OC(C)(C)C=C3)cc1OC(=O)Cc1ccc(Cl)c(Cl)c1 [SKLBC-67, (E)-2-methoxy-5-(3-(5-methoxy-2,2-dimethyl-2H-chromen-8-yl)-3-oxoprop-1-en-1-yl)phenyl 2-(3,4-dichlorophenyl)acetate]",10
4.85,9.28,10,–,> 10,"COc1ccc(/C=C/C(=O)c2ccc(OC)c3c2OC(C)(C)C=C3)cc1NCc1ccccc1 [SKLBC-90, (E)-3-(3-(benzylamino)-4-methoxyphenyl)-1-(5-methoxy-2,2-dimethyl-2H-chromen-8-yl)prop-2-en-1-one]",> 10
4.55,2.4,> 10,–,5.1,"CCC(=O)Nc1cc(/C=C/C(=O)c2ccc(OC)c3c2OC(C)(C)C=C3)ccc1OC [SKLBC-93, (E)-N-(2-methoxy-5-(3-(5-methoxy-2,2-dimethyl-2H-chromen-8-yl)-3-oxoprop-1-en-1-yl)phenyl)propionamide]",7.8

Compound,IC50 (HepG2) [µM],IC50 (K562) [µM],IC50 (A549) [µM],IC50 (A375) [µM],IC50 (SMMC-7221) [µM],IC50 (LO2) [µM]
"COc1ccc(/C=C/C(=O)c2ccc(OC)c3c2OC(C)(C)C=C3)cc1OC(=O)CCCc1ccc(N(CCCl)CCCl)cc1 [SKLBC-65, (E)-2-methoxy-5-(3-(5-methoxy-2,2-dimethyl-2H-chromen-8-yl)-3-oxoprop-1-en-1-yl)phenyl 4-(4-(bis(2-chloroethyl)amino)phenyl)butanoate]",2.1,0.6,0.55,3.8,0.98,> 10
